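Cells were grown in 96-well plates and exposed to each compound for 48 hours at five concentrations; endpoints were interpolated linearly between bracketing concentrations, or set to the highest concentration if not reached. GI50 marks 50% less growth.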 Calls of active or inactive are those of the source. Cut-off read from the data, not from the text of the source: active = GI50 up to about 1.1 µM and inactive = higher.
Tests used:
Assay in all cases: growth of human tumour cells (NCI), 48 h
SK-OV-3 = tested on: SK-OV-3
SW-620 = tested on: SW-620
NCI-H226 = tested on: NCI-H226
OVCAR-8 = tested on: OVCAR-8
TK-10 = tested on: TK-10
A498 = tested on: A498
M14 = tested on: M14
OVCAR-4 = tested on: OVCAR-4
SK-MEL-28 = tested on: SK-MEL-28
NCI-H23 = tested on: NCI-H23
NCI-H460 = tested on: NCI-H460
SF-295 = tested on: SF-295
SK-MEL-2 = tested on: SK-MEL-2
EKVX = tested on: EKVX
HCT-15 = tested on: HCT-15
COLO 205 = tested on: COLO 205
SR = tested on: SR

| Compound | GI50 (SK-OV-3) | GI50 (SW-620) | GI50 (NCI-H226) | GI50 (OVCAR-8) | GI50 (TK-10) | GI50 (A498) | GI50 (M14) | GI50 (OVCAR-4) | GI50 (SK-MEL-28) | GI50 (NCI-H23) | GI50 (NCI-H460) | GI50 (SF-295) | GI50 (SK-MEL-2) | GI50 (EKVX) | GI50 (HCT-15) [µM] | GI50 (COLO 205) | GI50 (SR) |
| --- | --- | --- | --- | --- | --- | --- | --- | --- | --- | --- | --- | --- | --- | --- | --- | --- | --- |
| COC(OC)c1cc2c(cc1C(=O)[C@@]13CCC[C@@H]1NC(=O)O3)OCO2 | > 100 µM (inactive) | > 100 µM (inactive) | > 100 µM (inactive) | > 100 µM (inactive) | > 100 µM (inactive) | > 100 µM (inactive) | > 100 µM (inactive) | > 100 µM (inactive) | > 100 µM (inactive) | 78.5 µM (inactive) | > 100 µM (inactive) | > 100 µM (inactive) | > 100 µM (inactive) | > 100 µM (inactive) | – | – | – |
| Cn1nc2ccccc2cc1=O | > 100 µM (inactive) | > 100 µM (inactive) | > 100 µM (inactive) | > 100 µM (inactive) | > 100 µM (inactive) | > 100 µM (inactive) | > 100 µM (inactive) | > 100 µM (inactive) | > 100 µM (inactive) | > 100 µM (inactive) | > 100 µM (inactive) | > 100 µM (inactive) | > 100 µM (inactive) | > 100 µM (inactive) | > 100 | > 100 µM (inactive) | – |
| c1ccc2[nH]c(CNc3ccc(C4C[Se]N=N4)cc3)nc2c1 (configuration not stated) | > 100 µM (inactive) | 95.7 µM (inactive) | – | 28.5 µM (inactive) | > 100 µM (inactive) | > 100 µM (inactive) | 67.3 µM (inactive) | 27.5 µM (inactive) | 78.9 µM (inactive) | 30.3 µM (inactive) | 41.2 µM (inactive) | 28.4 µM (inactive) | 33 µM (inactive) | – | > 100 | 48.6 µM (inactive) | 9.86 µM (inactive) |
| O=C(O)CC[C@H](NC(=O)c1ccc(-n2nc3ccc(=O)cc-3[nH]c2=O)cc1)C(=O)O | – | > 100 µM (inactive) | – | > 100 µM (inactive) | > 100 µM (inactive) | > 100 µM (inactive) | > 100 µM (inactive) | > 100 µM (inactive) | > 100 µM (inactive) | > 100 µM (inactive) | > 100 µM (inactive) | > 100 µM (inactive) | > 100 µM (inactive) | > 100 µM (inactive) | > 100 | > 100 µM (inactive) | > 100 µM (inactive) |
| O=C1C=C(Nc2ccccc2C(=O)CC(=O)C(=O)Nc2cccc([N+](=O)[O-])c2)c2ccccc2C1=O | > 100 µM (inactive) | 25.6 µM (inactive) | 59.3 µM (inactive) | 28 µM (inactive) | > 100 µM (inactive) | > 100 µM (inactive) | 41.5 µM (inactive) | 26.9 µM (inactive) | 46 µM (inactive) | 26.9 µM (inactive) | 93.3 µM (inactive) | – | 56 µM (inactive) | > 100 µM (inactive) | 23.8 | > 100 µM (inactive) | – |
| COc1ccc(/C(=N/NC(N)=O)C(c2ccc(OC)cc2)C2C(=O)Oc3ccccc32)cc1 (configuration not stated) | > 100 µM (inactive) | > 100 µM (inactive) | > 100 µM (inactive) | > 100 µM (inactive) | – | – | > 100 µM (inactive) | > 100 µM (inactive) | > 100 µM (inactive) | > 100 µM (inactive) | > 100 µM (inactive) | > 100 µM (inactive) | – | – | > 100 | > 100 µM (inactive) | > 100 µM (inactive) |
| CCCCOP1(=O)C=C(C)C(=C(Cl)Cl)C(C)=C1 (configuration not stated) | 19.5 µM (inactive) | 3.98 µM (inactive) | 3.38 µM (inactive) | 17.9 µM (inactive) | 11.2 µM (inactive) | – | 11.6 µM (inactive) | 23.8 µM (inactive) | 8.17 µM (inactive) | 12.4 µM (inactive) | 13 µM (inactive) | 6.61 µM (inactive) | 1.98 µM (inactive) | 47.4 µM (inactive) | 11.5 | 5.25 µM (inactive) | 3.2 µM (inactive) |
| COC(=O)N/N=C(\C)CC(=O)Nc1ccc(Cl)cc1 | > 100 µM (inactive) | > 100 µM (inactive) | > 100 µM (inactive) | > 100 µM (inactive) | > 100 µM (inactive) | > 100 µM (inactive) | > 100 µM (inactive) | – | > 100 µM (inactive) | > 100 µM (inactive) | > 100 µM (inactive) | > 100 µM (inactive) | > 100 µM (inactive) | 46.7 µM (inactive) | – | > 100 µM (inactive) | – |
| CC(C)=CC(=O)c1c(C(=O)O)nc2ccccc2[n+]1[O-] | > 100 µM (inactive) | > 100 µM (inactive) | > 100 µM (inactive) | – | > 100 µM (inactive) | > 100 µM (inactive) | > 100 µM (inactive) | > 100 µM (inactive) | > 100 µM (inactive) | > 100 µM (inactive) | > 100 µM (inactive) | > 100 µM (inactive) | > 100 µM (inactive) | > 100 µM (inactive) | > 100 | > 100 µM (inactive) | > 100 µM (inactive) |
| CC1OC(n2cc(F)c(=O)[nH]c2=O)CCC1=O (configuration not stated) | > 100 µM (inactive) | > 100 µM (inactive) | > 100 µM (inactive) | > 100 µM (inactive) | > 100 µM (inactive) | 30.4 µM (inactive) | > 100 µM (inactive) | > 100 µM (inactive) | – | – | 32.2 µM (inactive) | > 100 µM (inactive) | > 100 µM (inactive) | – | 95.3 | 79.4 µM (inactive) | > 100 µM (inactive) |
| COc1cccc(OC)c1/C=N\N1C(=O)c2ccccc2C1=O | – | 41.6 µM (inactive) | > 100 µM (inactive) | 29.6 µM (inactive) | 57.7 µM (inactive) | > 100 µM (inactive) | 19.7 µM (inactive) | 49 µM (inactive) | 77.6 µM (inactive) | 38.5 µM (inactive) | 43.2 µM (inactive) | 92.3 µM (inactive) | 60.8 µM (inactive) | > 100 µM (inactive) | 32.1 | – | 32.8 µM (inactive) |
| COc1ccc(N2C(=O)C3c4[nH]c5ccccc5c4C4CCC(C(C)(C)C)CC4C3C2=O)cc1OC (configuration not stated) | 20.4 µM (inactive) | 26.7 µM (inactive) | 20 µM (inactive) | 18.2 µM (inactive) | – | 19.9 µM (inactive) | 45.3 µM (inactive) | 21.9 µM (inactive) | 71.1 µM (inactive) | 34.6 µM (inactive) | – | 20.4 µM (inactive) | – | 35.8 µM (inactive) | 35 | 31.2 µM (inactive) | 18.1 µM (inactive) |
| OC12CC/C(=N/OCc3ccccc3)CC1c1ccccc12 (configuration not stated) | > 100 µM (inactive) | – | > 100 µM (inactive) | > 100 µM (inactive) | > 100 µM (inactive) | – | > 100 µM (inactive) | > 100 µM (inactive) | > 100 µM (inactive) | > 100 µM (inactive) | > 100 µM (inactive) | > 100 µM (inactive) | > 100 µM (inactive) | > 100 µM (inactive) | > 100 | > 100 µM (inactive) | – |
| CCOC(=O)c1cc(/C=C/C(C)=C/C(=O)OC)oc1-c1ccccc1 | > 100 µM (inactive) | > 100 µM (inactive) | > 100 µM (inactive) | 92.7 µM (inactive) | > 100 µM (inactive) | > 100 µM (inactive) | > 100 µM (inactive) | 63.5 µM (inactive) | – | 61.8 µM (inactive) | 65.3 µM (inactive) | 50.8 µM (inactive) | > 100 µM (inactive) | > 100 µM (inactive) | 58.9 | > 100 µM (inactive) | – |
| CCn1c2ccccc2c(=O)c2c(OC)ccc(OC)c21 | 64.9 µM (inactive) | 32.8 µM (inactive) | 32.2 µM (inactive) | 56.8 µM (inactive) | – | 25.4 µM (inactive) | 79.8 µM (inactive) | 31.3 µM (inactive) | – | > 83.8 µM (inactive) | 47.6 µM (inactive) | 53.8 µM (inactive) | 75.5 µM (inactive) | > 66.5 µM (inactive) | 45.9 | 55.7 µM (inactive) | 34.9 µM (inactive) |
| COC(=O)/C(=C/CC(N=C(c1ccccc1)c1ccccc1)C(=O)OC)N=C(c1ccccc1)c1ccccc1 (configuration not stated) | 39 µM (inactive) | > 100 µM (inactive) | – | > 100 µM (inactive) | > 100 µM (inactive) | – | > 100 µM (inactive) | > 100 µM (inactive) | > 100 µM (inactive) | > 100 µM (inactive) | > 100 µM (inactive) | > 100 µM (inactive) | > 100 µM (inactive) | > 100 µM (inactive) | > 100 | > 100 µM (inactive) | > 100 µM (inactive) |
| CN(C)C(=Nc1nc(N(C)C)s[s+]1)N(C)C | > 100 µM (inactive) | > 100 µM (inactive) | 72.8 µM (inactive) | > 100 µM (inactive) | > 100 µM (inactive) | > 100 µM (inactive) | > 100 µM (inactive) | > 100 µM (inactive) | > 100 µM (inactive) | > 100 µM (inactive) | > 100 µM (inactive) | > 100 µM (inactive) | > 100 µM (inactive) | > 100 µM (inactive) | > 100 | – | – |
| CCCCCCCCCCCCNC1(C)CNCCCNCCNCCCNC1 | 1.82 µM (inactive) | 1.79 µM (inactive) | 1.51 µM (inactive) | 1.55 µM (inactive) | 1.7 µM (inactive) | – | 1.79 µM (inactive) | 2.07 µM (inactive) | 1.87 µM (inactive) | 1.71 µM (inactive) | 1.33 µM (inactive) | 1.51 µM (inactive) | 1.9 µM (inactive) | 3.56 µM (inactive) | – | 1.74 µM (inactive) | 1.61 µM (inactive) |
| Cc1ccc2[nH]c3c(C)c4c(c(C)c3c2c1)CN(C)C=C4 | 0.33 µM (active) | 0.281 µM (active) | 0.353 µM (active) | 0.444 µM (active) | 9.29 µM (inactive) | – | 3.9 µM (inactive) | 1.66 µM (inactive) | 1.98 µM (inactive) | 0.735 µM (active) | 2.74 µM (inactive) | 0.423 µM (active) | 1.72 µM (inactive) | 1.17 µM (inactive) | 13.8 | 0.285 µM (active) | 1.61 µM (inactive) |
